60 compounds from the METLIN SMRT retention time set (Domingo-Almenara et al. 2019) can be followed below.

Structures are written as SMILES.

The data set can be described thus: gradient 5% acetonitrile 3 min, to 50% in 2 min, to 85% in 15 min, held 3 min, 100 µL/min. The conditions noted are these: column: Zorbax Extend-C18 2.1 x 50 mm; eluents: water / acetonitrile, 0.1% formic acid. The method in brief:
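Standards, all pure, were combined into mixtures of ~100 molecules and run at 100 μL/min on a Zorbax Extend-C18 column (2.1 × 50 mm, 1.8 μm) with water and acetonitrile, each containing 0.1% formic acid. A coupled quadrupole time-of-flight mass spectrometer operated in positive and negative ionization mode. Retention time values come from computationally picked adduct peaks, each inspected manually.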
The compound `CC(=O)c1ccc(NC(=O)NC2CCN(c3nc4ccccc4n(C)c3=O)CC2)cc1` came in with an RP-LC retention time of 748 s.

Compound `Cc1cc(C)n(Cc2nc(-c3ccc(NC(=O)c4ccco4)cc3)oc2C)n1` came in with an RP-LC retention time of 818 s.

Take `CO[C@H]1CN(C2CCN(S(=O)(=O)c3ccc(C#N)cc3)CC2)[C@H]1c1cccnc1`: the RP-LC retention time turned out to be 609 s.

As to `COc1ccc(OC)c(CNC(=O)Cc2nnc(-c3cnccn3)o2)c1`, the RP-LC retention time stood at 616 s.

For the compound `CC1=C(c2ccc(Cl)cc2)S(=O)(=O)N=C1N1CCCN(C(=O)CC(C)C)CC1`, the RP-LC retention time worked out at 875 s.

`COc1cc2nc(SCC(=O)Nc3cc(C)[nH]n3)n3nc(C)nc3c2cc1OC` returned an RP-LC retention time of 605 s.

On to `CN(C)S(=O)(=O)c1ccc(C(=O)N2CCC(c3nnc(C(F)(F)F)o3)CC2)cc1`, for which the RP-LC retention time came out at 747 s.

Compound `O=C(NCCCN1CCOC(c2ccccc2)C1)NC1CCCCC1` (stereo not given) gave an RP-LC retention time of 584 s.

Take `Cc1ccc(-c2nc3nc(C)c(CC(=O)NC(C)C)c(C)n3n2)cc1`: the RP-LC retention time was determined as 761 s.

Take `O=C(NCc1cccs1)C1CN(C(=O)c2ccc(F)c(F)c2)C1`: the RP-LC retention time was 688 s.

In turn, `Cc1ccc(C)c(NC(=O)N2CCC3(CC2)NC(=O)c2ccc(F)cc2N3C)c1` returned an RP-LC retention time of 769 s.

Regarding `Cn1cc(CN2CCN(C(=O)C3CCN(S(=O)(=O)N4CCCC4)CC3)CC2)c2ccccc21`, the RP-LC retention time turned out to be 655 s.

Consider `COC(=O)c1cc(OCC(=O)NCc2ccc3c(c2)OCO3)c2cc(OC)ccc2n1`, for which the RP-LC retention time was found to be 749 s.

Consider `Cn1cc(CCNS(=O)(=O)c2ccccc2C(F)(F)F)c2cccnc21`, for which the RP-LC retention time was determined as 764 s.

`COc1ccc(-c2noc(C3CCCN3C(=O)c3cccs3)n2)cc1` (stereo not given) returned an RP-LC retention time of 924 s.

Take `CCn1cc(-c2nc(C)c(C(=O)NCc3ccc4c(c3)OCO4)s2)c2cccnc21`: the RP-LC retention time came to 925 s.

In turn, `Cc1csc(-c2ccc(N3CCN(C(=O)c4cccc(F)c4)CC3)nc2)n1` yielded an RP-LC retention time of 822 s.

As to `CCCCOc1ccc(-c2cc3c4nnc(CCC(=O)N5CCN(CC)CC5)n4ccn3n2)cc1`, the RP-LC retention time came out at 680 s.

On to `CCn1nc(C)c2ccn(CC(=O)NCc3cc(F)cc(F)c3)c(=O)c21`, for which the RP-LC retention time was 757 s.

For `COc1ccc(-c2nc(N(CC(C)C)CC(C)C)c3ccccc3n2)cc1`, the RP-LC retention time turned out to be 1020 s.

`COc1ccc(-c2nnc(N3CCC(C(=O)NCc4ccco4)CC3)o2)cc1` returned an RP-LC retention time of 738 s.

In the case of `Cc1ccccc1Nc1c(-c2ccc(Cl)cc2)nc2ccc(Cl)cn12`, the RP-LC retention time is 1050 s.

Regarding `CCOc1ccc2nc(Nc3nc(C)cc(C(F)(F)F)n3)nc(C)c2c1`, the RP-LC retention time was 753 s.

`CCCN(CC1CCOC1)C(=O)Nc1ccccc1C` (stereo not given) displayed an RP-LC retention time of 768 s.

`COc1ccc(Cl)cc1NC(=O)Cn1c2c(c(=O)n(C3CCCCC3)c1=O)CCC2`: the RP-LC retention time stood at 997 s.

In turn, `O=C(Nc1ccccc1)c1nnc(CCCC(=O)N2CCN(c3ccccn3)CC2)s1` had an RP-LC retention time of 638 s.

Regarding `Cc1c(N2CCC(C(=O)N3CCN(c4ccccn4)CC3)CC2)c(=O)n(C)c(=O)n1-c1ccccc1`, the RP-LC retention time is 618 s.

`Cc1ccccc1-n1ccn(Cc2nc(-c3ccc(F)c(Cl)c3)no2)c(=O)c1=O` registered an RP-LC retention time of 942 s.

The compound `Cc1ccc(NC(=O)N2CCCC2c2nncn2C2CCCC2)cc1F` (stereo not given) displayed an RP-LC retention time of 728 s.

The compound `COc1ccccc1CNC(=O)c1cc(C)nn1-c1ccccc1` came in with an RP-LC retention time of 809 s.

Consider `CS(=O)(=O)N1CCCc2ccc(NS(=O)(=O)c3ccc(Cl)s3)cc21`, for which the RP-LC retention time was 849 s.

Turning to `O=C(Cn1nc2n(c1=O)CCCC2)Nc1ccc(Br)cc1`, the RP-LC retention time came to 703 s.

Compound `COCc1cc(=O)n(Cc2cccc(F)c2)c(N2CCCC2)n1` came in with an RP-LC retention time of 806 s.

For the compound `O=C(NCc1csc(-c2cccs2)n1)C1CCN(S(=O)(=O)c2ccccc2F)CC1`, the RP-LC retention time worked out at 860 s.

Take `O=c1ccn(-c2ccc(Cl)cc2)nc1-c1nc(-c2ccc(Cl)cc2)no1`: the RP-LC retention time is 1040 s.

`COc1ccc(OC)c(NC(=O)NC2CCN(c3cc(C)cc(C)c3)C2=O)c1` (stereo not given): the RP-LC retention time amounted to 887 s.

`CCN(CC)CCNc1ncnc2onc(-c3ccc(Cl)cc3)c12` displayed an RP-LC retention time of 664 s.

In turn, `CCCc1nc(NCc2ccc(OC)c(OC)c2)ncc1C(=O)O` displayed an RP-LC retention time of 740 s.

`Cc1c(C(=O)Nc2ccc(N3CCC(N4CCOCC4)CC3)c(C#N)c2)cnn1-c1ccc(Cl)cc1` yielded an RP-LC retention time of 800 s.

In the case of `Cc1c(Cl)cccc1NC(=O)N1CCCC(C)(C(=O)NCc2ccccc2)C1` (stereo not given), the RP-LC retention time turned out to be 1010 s.

The compound `CCN1CCCC(Cn2cc(COc3ccc4c(c3)CCC4)nn2)C1` (stereo not given) gave an RP-LC retention time of 679 s.

With `O=C(Nc1ccccc1)c1nnc(CCC(=O)N2CCN(c3ccccn3)CC2)s1`, the RP-LC retention time stood at 617 s.

`COC(=O)c1cc2c(=O)n(CCc3c[nH]c4ccc(OC)cc34)ccc2nc1C`: the RP-LC retention time came out at 774 s.

`Cc1cc(C)n(-c2ccnc(N3CCC(C(=O)N4CCc5ccccc5C4)CC3)n2)n1` returned an RP-LC retention time of 935 s.

Compound `Cc1cccc(CNC(=O)c2ccc3c(c2)CC(=O)N3C)c1` registered an RP-LC retention time of 742 s.

In turn, `O=C(Nc1ccc(F)c(Cl)c1)c1cn2c(n1)CSCC2` gave an RP-LC retention time of 807 s.

Take `COc1ccc(N2CCN(c3cc(SCC(=O)NCc4ccccc4)ncn3)CC2)cc1`: the RP-LC retention time was 823 s.

For `COC1CCC12CCN(C(=O)c1cccs1)CC2` (stereo not given), the RP-LC retention time was determined as 748 s.

`CC(C)Cn1nc(CNC(=O)c2ccsc2)c2ccccc21`: the RP-LC retention time was determined as 882 s.

Compound `CC1Oc2ccccc2N(Cc2nc(-c3ccccc3)no2)C1=O` (stereo not given) returned an RP-LC retention time of 1040 s.

On to `Fc1ccc(-c2nnc(-c3ccc(-n4ccnc4)nc3)o2)c(F)c1`, for which the RP-LC retention time turned out to be 645 s.

Compound `Cc1cccc(-c2noc(C3CC(=O)N(c4ccc5c(c4)OCO5)C3)n2)c1` (stereo not given) displayed an RP-LC retention time of 978 s.

`Cc1ccc(Cn2c(N3CCCC(C(=O)NCc4cccs4)C3)nc3ccsc3c2=O)cc1` (stereo not given) returned an RP-LC retention time of 952 s.

The compound `COc1cccc(CNC(=O)C2(c3ccc(NS(C)(=O)=O)cc3)CCCCC2)c1` yielded an RP-LC retention time of 867 s.

Compound `CCOC(=O)N1CCC(NC(=O)C2CCCN(c3cc(=O)n(C)c(=O)n3C)C2)CC1` (stereo not given) had an RP-LC retention time of 621 s.

With `COc1ccc(C(O)CN2CCN(c3ccccc3)CC2)cc1` (stereo not given), the RP-LC retention time stood at 630 s.

As to `CS(=O)(=O)c1nc2ccc(NS(=O)(=O)c3ccc(Br)s3)cc2s1`, the RP-LC retention time turned out to be 888 s.

For the compound `Cc1nc(CNC(=O)C2CCN(C(=O)NCCc3ccccc3)CC2)cs1`, the RP-LC retention time stood at 660 s.

For `O=C(c1nnc(-c2ccc(S(=O)(=O)N3CCCCC3)cc2)o1)N1CCCCC1`, the RP-LC retention time was found to be 956 s.

For `CN(C)C(=O)c1ccc2c(c1)N(CC(=O)NCCCN1CCCC1=O)C(=O)C1CCCCN21` (stereo not given), the RP-LC retention time is 619 s.
